Results reported in the supplement of paper PMC10307832.

Columns and labels:
Assay in all cases: relative viability (nuclei count vs DMSO), 5 days (fraction); higher = more cells survive
CAP-232 + Luminespib = compound: C[C@H]([C@@H](C(=O)N)NC(=O)[C@@H]1CSSC[C@@H](C(=O)N[C@H](C(=O)N[C@@H](C(=O)N[C@H](C(=O)N1)CCCCN)CC2=CNC3=CC=CC=C32)CC4=CC=C(C=C4)O)NC(=O)[C@@H](CC5=CC=CC=C5)N)O [CAP-232] + CCNC(=O)c1noc(-c2cc(C(C)C)c(O)cc2O)c1-c1ccc(CN2CCOCC2)cc1 [Luminespib] (partner 0.01 µM)
Method in brief: (§1)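 Relative viability is defined as nuclei in treated wells over nuclei in vehicle wells. Duplicate plates were run and medians reported. Lung cancer cell lines in 1536-well plates were dosed by pin tool one day after seeding, with one drug or with a fixed anchor-drug dose plus five library-drug doses (not always all listed) in √10 steps, and nuclei were counted after 5 days.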

CAP-232 + Vorinostat = compound: C[C@H]([C@@H](C(=O)N)NC(=O)[C@@H]1CSSC[C@@H](C(=O)N[C@H](C(=O)N[C@@H](C(=O)N[C@H](C(=O)N1)CCCCN)CC2=CNC3=CC=CC=C32)CC4=CC=C(C=C4)O)NC(=O)[C@@H](CC5=CC=CC=C5)N)O [CAP-232] + O=C(CCCCCCC(=O)Nc1ccccc1)NO [Vorinostat] (partner 1 µM)
Method in brief: as §1

CAP-232 + Foretinib = compound: C[C@H]([C@@H](C(=O)N)NC(=O)[C@@H]1CSSC[C@@H](C(=O)N[C@H](C(=O)N[C@@H](C(=O)N[C@H](C(=O)N1)CCCCN)CC2=CNC3=CC=CC=C32)CC4=CC=C(C=C4)O)NC(=O)[C@@H](CC5=CC=CC=C5)N)O [CAP-232] + COc1cc2c(Oc3ccc(NC(=O)C4(C(=O)Nc5ccc(F)cc5)CC4)cc3F)ccnc2cc1OCCCN1CCOCC1 [Foretinib] (partner 0.25 µM)
Method in brief: as §1

CAP-232 + Tozasertib = compound: C[C@H]([C@@H](C(=O)N)NC(=O)[C@@H]1CSSC[C@@H](C(=O)N[C@H](C(=O)N[C@@H](C(=O)N[C@H](C(=O)N1)CCCCN)CC2=CNC3=CC=CC=C32)CC4=CC=C(C=C4)O)NC(=O)[C@@H](CC5=CC=CC=C5)N)O [CAP-232] + Cc1cc(Nc2cc(N3CCN(C)CC3)nc(Sc3ccc(NC(=O)C4CC4)cc3)n2)n[nH]1 [Tozasertib] (partner 0.1 µM)
Method in brief: as §1

CAP-232 + Bortezomib = compound: C[C@H]([C@@H](C(=O)N)NC(=O)[C@@H]1CSSC[C@@H](C(=O)N[C@H](C(=O)N[C@@H](C(=O)N[C@H](C(=O)N1)CCCCN)CC2=CNC3=CC=CC=C32)CC4=CC=C(C=C4)O)NC(=O)[C@@H](CC5=CC=CC=C5)N)O [CAP-232] + CC(C)C[C@H](NC(=O)[C@H](Cc1ccccc1)NC(=O)c1cnccn1)B(O)O [Bortezomib] (partner 0.002 µM)
Method in brief: as §1

Cell Line	relative viability (CAP-232 + Luminespib; first compound 0.4 µM)	relative viability (CAP-232 + Luminespib; first compound 1.265 µM)	relative viability (CAP-232 + Luminespib; first compound 4 µM)	relative viability (CAP-232 + Luminespib; first compound 12.65 µM)	relative viability (CAP-232 + Vorinostat; first compound 0.4 µM)	relative viability (CAP-232 + Vorinostat; first compound 1.265 µM)	relative viability (CAP-232 + Vorinostat; first compound 4 µM)	relative viability (CAP-232 + Vorinostat; first compound 12.65 µM)	relative viability (CAP-232 + Foretinib; first compound 0.4 µM)	relative viability (CAP-232 + Foretinib; first compound 1.265 µM)	relative viability (CAP-232 + Foretinib; first compound 4 µM)	relative viability (CAP-232 + Foretinib; first compound 12.65 µM)	relative viability (CAP-232 + Tozasertib; first compound 0.4 µM)	relative viability (CAP-232 + Tozasertib; first compound 1.265 µM)	relative viability (CAP-232 + Tozasertib; first compound 4 µM)	relative viability (CAP-232 + Tozasertib; first compound 12.65 µM)	relative viability (CAP-232 + Bortezomib; first compound 0.4 µM)	relative viability (CAP-232 + Bortezomib; first compound 1.265 µM)	relative viability (CAP-232 + Bortezomib; first compound 4 µM)	relative viability (CAP-232 + Bortezomib; first compound 12.65 µM)
NCI-H661	0.954	0.907	0.883	0.719	0.848	0.848	0.875	0.752	0.986	0.951	1.05	1.02	0.367	0.372	0.347	0.329	0.658	0.809	0.733	0.851
NCI-H727	0.474	0.318	0.348	0.386	1.19	1.08	1.39	1.23	0.933	0.92	0.845	0.824	0.491	0.525	0.698	0.499		0.754	1.11	0.601
NCI-H838	0.321	0.266	0.349	0.246	0.727	0.756	0.754	0.736	1.23	1.02	1.11	0.75	0.274	0.273	0.286	0.231	0.916	0.643	0.86	0.544
NCI-H1355	0.81	0.808	0.578	0.683	0.612	0.624	0.74	0.611	1.07	1.04	0.945	0.908	0.638	0.586	0.557	0.655	1.27	1.22	1.39	1.24
NCI-H1437	1.17	1.13	1.24	0.812	0.921	0.877	0.86	0.828	1.26	1.27	1.34	1.2	0.412	0.403	0.461	0.466	0.604	0.584	0.598	0.521
NCI-H1650	0.195	0.197	0.214	0.126	0.645	0.514	0.622	0.183	1.07	1.11	1.25	0.542	0.427	0.38	0.391	0.213	0.196	0.209	0.214	0.117
NCI-H1651	1.12	0.95	0.867	0.506	0.632	0.55	0.577	0.551	0.709	0.913	0.843	0.485	0.665	0.681	0.732	0.625	1.01	0.939	1.02	0.953
NCI-H1666	1.03	1.04	0.982	0.963	1.09	1.06	1.19	0.856	0.946	0.989	0.892	0.821	0.631	0.574	0.673	0.345	0.759		0.952	0.393
NCI-H1734	0.194	0.214	0.163	0.206	0.878	0.755	0.803	0.708	0.883	0.863	0.971	0.697	0.248	0.272	0.266	0.197	0.919	0.902	1.06	0.74
NCI-H1755	0.419	0.612	0.329	0.383	0.698	0.635	0.755	0.73	0.927	0.883	0.934	0.815	0.581	0.498	0.58	0.498	1.05	0.912	1.15	0.887
NCI-H1915	0.946	0.798	0.806	0.736	0.697	0.511	0.516	0.506	1.11	1.11	1.11	1.09	0.593	0.432	0.444	0.466	1.1	1.05	1.06	0.95
NCI-H1975	0.256	0.195	0.195	0.185	0.781	0.758	0.763	0.449	0.931	0.915	1.06	0.474	0.968	0.75	0.94	0.482	0.336	0.351	0.416	0.255
NCI-H1993	0.735	0.882	0.99	0.831	0.702	0.802	0.791	0.749	0.804	0.775	0.829	0.757	0.621	0.569	0.664	0.582	1.26	1.07	0.966	0.896
NCI-H2009	1.02	0.975	1	0.95	0.731	0.733	0.773	0.634	1.23	1.17	1.21	1.07	0.757	0.713	0.823	0.684	1.09	0.974	0.97	0.843
